In patent US9945845B2, “Methods of screening using amphibians” (priority 2009, dated 2018):

Test system: blood vessel development and/or lymphangiogenesis in Xenopus embryos
Format: in vivo, Xenopus laevis
Summary of the method: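 Albino Xenopus embryos treated at 20 μM final (from 10-mM DMSO stocks) in screening medium, 7 per well, from stage 31 (37 hpf) to stage 35/36 (50 hpf) or 42 (80 hpf). Fixed in 4% paraformaldehyde and scored by whole-mount in situ hybridization: vasculogenesis and intersomitic vein angiogenesis at stage 35/36, lymph vessel development at stage 42.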

## Oc1cc(-c2ccccc2)nc2nc(Cl)ccc12 [7-Chloro-4-hydroxy-2-phenyl-1,8-naphthyridine]
20 μM from stage 31, fixed at stage 35/36
  blood vessel development phenotype (apj expression, in words): interfered not only with ISV angiogenesis but also with VVN assembly
20 μM from stage 31, fixed at stage 42
  lymph vessel development phenotype (vegfr3 expression, in words): stunted, disorganized lymphatic vessels arising from the ALS and ALH
Anterior lymph heart, Xenopus embryos
  ALH phenotype: dysplastic
Anterior lymph sac, Xenopus embryos
  ALS phenotype: stunted
Intersomitic vessels, Xenopus embryos
  ISV phenotype: stunted
Posterior cardinal vein, Xenopus embryos
  PCV phenotype: normal
Posterior lymph vessels, Xenopus embryos
  PLV phenotype: hypoplastic
Vitelline vein network, Xenopus embryos
  VVN phenotype: hypoplastic
